Converted amounts (≈) assume the structure as drawn. Like-named read-outs stand apart in the source and are kept apart here.
What was measured:
[1] = test system: B16-F10 (murine melanoma) cells; assay: In vitro cytotoxicity (Table 14); type: cell-based; details: Mus musculus
Method: (§4) B16-F10 (murine melanoma), HCT-116 (human colon carcinoma), A549 (human lung carcinoma) and A549/VP29 (an etoposide-resistant subline of A549) were grown in Eagle's MEM (Nissui) supplemented with FCS (fetal calf serum, 10%) and non-essential amino acids (B16-F10), or in McCoy's 5A medium (Gibco) with FCS (10%), essential and non-essential amino acids, vitamins and antibiotics (HCT-116 and both of A549) at 37° C. under a humidified atmosphere in a 5% CO2 incubator. Exponentially growing B16-F10, HCT-116 and A549 cells were harvested, counted and suspended in the culture medium at 1.5×10^4, 3×10^4 and 3×10^4 cells/ml, respectively. After planting 180 μl of cell suspension into wells of a 96-well microtiter plate on day 0, the test materials (20 μl) were added on day 1 and the plates were incubated for 72 hours. The cytotoxic activity was colorimetrically determined at 540 nm after staining viable cells with neutral red solution.

[2] = test system: HCT-116 (human colon carcinoma) cells; assay: In vitro cytotoxicity (Table 14); type: cell-based
Method: as §4

[3] = test system: A549/VP29 (etoposide-resistant subline of A549) cells; assay: In vitro cytotoxicity (Table 14); details: for IC50: A549/VP29, 72 hours, neutral red
Method: (§5) After planting 180 μl of cell suspension into wells of a 96-well microtiter plate on day 0, the test materials (20 μl) were added on day 1 and the plates were incubated for 72 hours. The cytotoxic activity was colorimetrically determined at 540 nm after staining viable cells with neutral red solution.

[4] = test system: A549 (human lung carcinoma) cells; assay: In vitro cytotoxicity (Table 14); type: cell-based
Method: as §4

fungi = assay: In vitro antifungal activity, overall statement; details: various fungi
Method: In vitro antifungal activity was determined against various fungi by the serial agar dilution method. Sabouraud dextrose agar (pH 7.0) was used for the experiment. The inoculum size was adjusted to 10^6 CFU/ml. After incubation at 28° C. for 40 hours, the minimum inhibitory concentration (MIC) was examined.

[5] = test system: protein biosynthesis in L1210 leukemia cells; assay: Inhibition of macromolecule biosynthesis, protein (Table 15); type: cell-based, murine; details: Mus musculus, labeled precursor, 15 min + 60 min, 37° C., read-out: IC50, protein synthesis
Method: (§1) Inhibitory effects of the above compounds on macromolecule (DNA, RNA and protein) biosynthesis were determined in cultured L1210 murine leukemia cells. The cells (5×10^5 cells/ml) were incubated with the test materials at 37° C. for 15 minutes and then further incubated for 60 minutes after the addition of labeled precursor, ^3 H-thymidine, ^14 C-uridine or ^3 H-leucine into the cultured mixture. After washing with chilled 5% trichloroacetic acid solution, the radioactivity incorporated into the acid-insoluble fraction of the cells was determined with a liquid scintillation counter.

[6] = test system: DNA biosynthesis in L1210 leukemia cells; assay: Inhibition of macromolecule biosynthesis, DNA (Table 15); type: cell-based, murine
Method: as §1

P388 leukemia = assay: In vivo antitumor activity against P388 leukemia (Table 8); details: for MST (median survival time) / T/C: Q1D × 3
[7] = test system: murine and human tumor cell lines; assay: In vitro cytotoxicity, overall statement; details: murine and human tumor cell lines
Method: as §5

Solubility = type: physicochemical
[8] = test system: RNA biosynthesis in L1210 leukemia cells; assay: Inhibition of macromolecule biosynthesis, RNA (Table 15); type: cell-based, murine; details: Mus musculus, labeled precursor, 15 min + 60 min, 37° C., read-out: IC50, RNA synthesis
Method: as §1

L1210 leukemia = assay: In vivo antitumor activity against L1210 leukemia (Table 9); details: Q1D × 3
[9] = test system: protein biosynthesis in L1210 leukemia cells; assay: Inhibition of macromolecule biosynthesis, protein (Table 7); type: cell-based, murine; details: Mus musculus, L1210; labelled precursor; 15 min + 60 min, 37° C.; read-out: IC50, protein synthesis
Method: as §1, with “of BU-3285T” for “of the above compounds”, “macromolecule biosynthesis” for “macromolecule”, “protein)” for “protein) biosynthesis”, “the compound” for “the test materials”, “of labelled” for “of labeled”, “determined by” for “determined with”

[10] = test system: DNA biosynthesis in L1210 leukemia cells; assay: Inhibition of macromolecule biosynthesis, DNA (Table 7); type: cell-based, murine; details: Mus musculus, L1210; 3H-thymidine, ^14 C-uridine or 3H-leucine precursor; 15 min + 60 min, 37° C.; read-out: IC50, DNA synthesis
Method: as §1, with “of BU-3285T” for “of the above compounds”, “macromolecule biosynthesis” for “macromolecule”, “protein)” for “protein) biosynthesis”, “the compound” for “the test materials”, “of labelled” for “of labeled”, “determined by” for “determined with”

[11] = test system: Moser (human colorectal carcinoma) cells; assay: In vitro cytotoxicity (Table 6); details: Homo sapiens, 72 h
Method: (§2) BU-3285T was tested for in vitro cytotoxicity against several murine and human tumor cell lines and for in vivo antitumor activity in mice. Mitomycin C was used as a reference compound in both in vitro and in vivo experiments. B16-F10 (murine melanoma) and Moser (human colorectal carcinoma) cells were grown to the logarithmic phase in an enriched Eagle minimum essential medium supplemented with fetal calf serum (FCS, 10%) and kanamycin (60 μg/ml); HCT-116 (human colon carcinoma) cells were in McCoy's 5A medium supplemented with FCS (10%), penicillin (100 U/ml) and streptomycin (100 μg/ml); and P388 (murine lymphocytic leukemia) cells and its vincristine-resistant subline (P388/VCR) were in RPMI 1640 medium supplemented with FCS (10%), penicillin (100 U/ml) and streptomycin (100 μg/ml).
(§3) B16-F10, Moser, HCT-116 and P388 cells were harvested and implanted into wells of a 96-well (for B16-F10, Moser and HCT-116 cells) or a 24-well (for P388 cells) tissue culture plate with test materials at the inoculum sizes of 3×10^4, 6 ×10^4, 6×10^4 and 2×10^4 cells/ml, respectively. They were incubated at 37° C. in a humidified atmosphere of 5% CO2 and 95% air for 72 hrs. […] For P388 cells, the number of viable cells was determined by a Coulter counter.

[12] = test system: HCT-116 (human colon carcinoma) cells; assay: In vitro cytotoxicity (Table 6); type: cell-based; details: HCT-116, 72 hrs, neutral red
Method: as §2, §3

[13] = test system: B16-F10 (murine melanoma) cells; assay: In vitro cytotoxicity (Table 6); type: cell-based; details: Mus musculus; B16-F10, 72 hrs, neutral red
Method: as §2, §3

[14] = test system: RNA biosynthesis in L1210 leukemia cells; assay: Inhibition of macromolecule biosynthesis, RNA (Table 7); type: cell-based, murine; details: Mus musculus, labelled precursor, 15 min + 60 min, 37° C., read-out: IC50, RNA synthesis
Method: as §1, with “of BU-3285T” for “of the above compounds”, “macromolecule biosynthesis” for “macromolecule”, “protein)” for “protein) biosynthesis”, “the compound” for “the test materials”, “of labelled” for “of labeled”, “determined by” for “determined with”

[15] = 0.1 mg/kg/day ip, significant if T/C ≥ 125%
[16] = 0.3 mg/kg/day ip, *2 significant, T/C ≥ 125%
[17] = 1 mg/kg/day ip, *2 significant, T/C ≥ 125%
[18] = 3 mg/kg/day ip, *2 significant, T/C ≥ 125%

Work on `COc1cc([C@@H]2c3cc4c(cc3[C@@H](O[C@@H]3O[C@@H]5CO[C@@H](C)O[C@H]5[C@H](O)[C@H]3O)[C@H]3COC(=O)[C@H]23)OCO4)cc(OC)c1O` [VP16, reference compound] yielded an IC50 ([1]; B16-F10, 72 h) of 0.21 µg/mL (≈ 0.357 µM), an IC50 ([2]; HCT-116, 72 h) of 5.3 µg/mL (≈ 9 µM) and an IC50 [3] of 40 µg/mL (≈ 68 µM). It also gave an IC50 ([4]; A549, 72 h) of 1.2 µg/mL (≈ 2.04 µM).

For `CCCCC/C=C/C=C\C=C/C(O)C(C)C(O)C/C=C/C1OC(=O)C=CC1O` (stereo not drawn) [BU-3285T desulfate], the “antifungal activity in vitro” value (fungi) was “no activity against fungi in vitro”, the IC50 [5] was 8.1 µg/mL and the IC50 ([6]; Mus musculus, L1210, labeled precursor, 15 min + 60 min, 37° C., read-out: IC50, DNA synthesis) was greater than 100 µg/mL. The “inhibitory effect on DNA synthesis” value ([6]; at 100 μg/ml, the highest concentration tested) was “no significant inhibitory effect”, the “in vivo antitumor activity” value (P388 leukemia; P388 leukemia in mice) was “not active” and the cytotoxicity in vitro [7] was “quite active”. The IC50 ([1]; B16-F10, 72 hours, neutral red, read-out: IC50) was 14 µg/mL (≈ 35.8 µM), the solubility in acetone (Solubility; acetone) was “soluble” and the “solubility in carbon tetrachloride” value (Solubility; carbon tetrachloride) was “insoluble”. The “solubility in dimethyl sulfoxide” value (Solubility; dimethyl sulfoxide) was “soluble”, the solubility in ethanol (Solubility; ethanol) was “soluble” and the solubility in methanol (Solubility; methanol) was “soluble”. The solubility in n-hexane (Solubility; n-hexane) was “insoluble”, the solubility in water (Solubility; water) was “slightly soluble” and the IC50 ([2]; HCT-116, 72 hours, neutral red, read-out: IC50) was 5.5 µg/mL (≈ 14.1 µM). The IC50 [3] was 15 µg/mL (≈ 38.4 µM), the “cytotoxicity against resistant A549/VP29 compared with parent cell line” value ([3]; vs A549 parent) was “almost the same cytotoxicity” and the IC50 ([4]; A549, 72 hours, neutral red, read-out: IC50) was 13 µg/mL (≈ 33.3 µM). It also gave an IC50 [8] of 6.1 µg/mL.

In the case of `CO[C@@]12[C@H](COC(N)=O)C3=C(C(=O)C(C)=C(N)C3=O)N1C[C@@H]1N[C@@H]12` [Mitomycin C, reference compound], the “MST (median survival time)” value (L1210 leukemia; 0.1 mg/kg/day ip) is reported as 8.5 days, the T/C (L1210 leukemia; [15]) is reported as 121% and the “MST (median survival time)” value (L1210 leukemia; 0.3 mg/kg/day ip) is reported as 10.0 days. For the same molecule, the T/C (L1210 leukemia; [16]) was 143%, the “MST (median survival time)” value (L1210 leukemia; 1 mg/kg/day ip) was 9.5 days and the T/C (L1210 leukemia; [17]) was 136%. For the same molecule, the “MST (median survival time)” value (L1210 leukemia; 3 mg/kg/day ip) was 13.0 days, the T/C (L1210 leukemia; [18]) was 186% and the IC50 [9] was greater than 100 µg/mL. The “MST (median survival time)” value (P388 leukemia; 0.1 mg/kg/day ip) was 11.5 days, the T/C (P388 leukemia; [15]) was 115% and the “MST (median survival time)” value (P388 leukemia; 0.3 mg/kg/day ip) was 14.0 days. For the same molecule, the T/C (P388 leukemia; [16]) was 140%, the “MST (median survival time)” value (P388 leukemia; 1 mg/kg/day ip) was 13.5 days and the T/C (P388 leukemia; [17]) was 135%. The “MST (median survival time)” value (P388 leukemia; 3 mg/kg/day ip) was 20.0 days, the T/C (P388 leukemia; [18]) was 200% and the IC50 [10] was 1.7 µg/mL. It also gave an IC50 [11] of 1.2 µg/mL (≈ 3.59 µM), an IC50 [12] of 0.8 µg/mL (≈ 2.39 µM) and an IC50 [13] of 0.5 µg/mL (≈ 1.5 µM). It also gave an IC50 [14] greater than 100 µg/mL.
